These are literature values, as cited in patent US20130210878A1, “BENDAMUSTINE COMPOSITIONS AND METHODS THEREFORE” (Innopharma, Inc., priority 2012, published 2013).

Read-outs that look alike come from different tables or passages of the source.

For this series the following is noted: 0.25 mg/ml in 0.9% sodium chloride.

`Cl.Cn1c(CCCC(=O)O)nc2cc(N(CCCl)CCCl)ccc21` [Bendamustine HCl, 1H-benzimidazole-2-butanoic acid, 5-[bis(2-chloro-ethyl)amino]-1 methyl-, monohydrochloride]: the time stable by setting is: (4° C.) 4 days; (23° C.) 0.38 days.
